In the NIST ThermoML archive (doi:10.1016/j.fluid.2013.12.017):

Experiment: molar heat capacity at constant pressure; xn = mol fraction of the nth substance listed
Details: 101 kPa, Liquid, Small sample (50 mg) DSC

CCC(N)(CO)CO [2-amino-2-ethyl-1,3-propanediol] + O
molar heat capacity at constant pressure [J/K/mol]
Details	x1 = 0.1494	x1 = 0.3002	x1 = 0.4502	x1 = 0.5992	x1 = 0.7505	x1 = 0.8989	x1 = 1
303.15 K	107.2	141.9	178.1	216.5	260.2	314.7	367.5
308.15 K	108.6	143.7	180.3	219.2	263.4	318.5	370.5
313.15 K	110	145.5	182.5	221.9	266.6	322.3	374.1
318.15 K	111.3	147.3	184.7	224.7	269.9	325.9	378
323.15 K	112.7	149.1	186.9	227.4	273.1	329.6	381.5
328.15 K	113.8	151	189.1	230.1	276.4	333.3	385.8
333.15 K	115.5	152.8	191.3	232.8	279.6	337	389.9
338.15 K	116.8	154.6	193.5	235.6	282.8	340.7	393.9
343.15 K	118.3	156.5	195.7	238.3	286.1	344.4	398.6
348.15 K	119.6	158.3	197.9	241	289.3	348.3	403.1
353.15 K	121.3	160.2	200.2	243.8	292.6	352	408.2
